The values that follow come from US10501562B2, “Co-initiator and co-monomer for use in preparing polymer related compositions, methods of manufacture, and methods of use” (University of Kansas, priority 2015, dated 2019).

The structures appear in SMILES notation.

A short description of series [1]: Chemical stability of amine co-initiators by 1H NMR in DMSO-d6/water. It counts as physicochemical. The conditions noted are these: 100 days storage at 25° C., 0.04 M in DMSO-d6/deionized water 80/20 wt/wt. The procedure: The chemical stability of three amine co-initiators (EDMAB, DMAEMA, and TUMA) was characterized by ^1H NMR spectroscopy, which were obtained on a Bruker Advance DRX 500 spectrometer (Bruker AXS Inc., Madison, Wis.) equipped with a broadband probe. Deuterated dimethyl sulfoxide (DMSO-d6)/deionized water (80/20 wt/wt) was used as the solvent. The NMR spectra of 0.04 M amine samples were monitored as a function of storage time at 25° C. The mixed (DMSO/water) solvent was used because of its ability to dissolve EDMAB and TUMA, which are hydrophobic compounds.

The conditions of series [2]: during 24 hours; cited from earlier work.

Consider `C=C(C)C(=O)OCCN(C)C` [DMAEMA, 2-(dimethylamino) ethyl methacrylate], for which the “degraded (chemical stability)” value in series [1] is reported as 37.6%. Also, in series [2], the “degradation in the presence of water” value is listed as “up to 82%”.

Regarding `CCOC(=O)c1ccc(N(C)C)cc1` [EDMAB, Ethyl-4-(dimethylamino) benzoate], the “degraded (chemical stability)” value in series [1] was “No degradation was detected”.

Turning to `C=C(C)C(=O)OCCNC(=O)OC(C)CN(CC(C)OC(=O)NCCOC(=O)C(=C)C)CC(C)OC(=O)NCCOC(=O)C(=C)C` (stereo not shown) [TUMA, 8-(2-(((2-(methacryloyloxy)ethyl)carbamoyl)oxy)propyl)-6,10-dimethyl-4,12-dioxo-5,11-dioxa-3,8,13-triazapentadecane-1,15-diyl bis(2-methylacrylate)], in series [1], the “degraded (chemical stability)” value is recorded as “No degradation was detected”.
